Results from patent US10858348B2, “Salt forms of 4-cyano-N-(4,4-dimethylcyclohex-1-en-1-yl)-6-(2,2,6,6-Tetr amethyltetrahydro-2H-pyran-4-yl)pyridin-3-yl)-1H-imidazole-2-carboximide” (Janssen Pharmaceutica NV, priority 2016, dated 2020).
In brackets after ≈: the same amount, converted by molar mass.

Experiment: physchem
Assay type: physicochemical
Settings: organic solvent or mixture

solubility: ~130 mg/mL (≈ 282 mM)
SMILES: CC1(C)CC=C(c2nc(C3CC(C)(C)OC(C)(C)C3)ccc2NC(=O)c2nc(C#N)c[nH]2)CC1 [Compound A, 4-cyano-N-[2-(4,4-dimethylcyclohex-1-en-1-yl)-6-(2,2,6,6-tetramethyltetrahydro-2H-pyran-4-yl)pyridin-3-yl]-1H-imidazole-2-carboxamide]
